In patent publication US20220088007A1 (priority 2010, published 2022):
Like-named read-outs stand apart in the source and are kept apart here.

Assays:
[1] = Example 1 (NB-233): single-dose crossover food-effect study of NB 8/90 trilayer tablets, plasma pharmacokinetics; details: for increase in Cmax: high-fat conditions compared to fasted conditions; for Cmax between high-fat and fasted conditions (in words): 90% CIs within 80% to 125% range
[2] = Example 2 (NB-236): steady-state food-effect extension study of NB 8/90 tablets, plasma pharmacokinetics
Method: A phase I, open label, steady-state study was performed to assess the plasma pharmacokinetics of NB tablets under fed and fasted conditions. An extension of the study allowed for the evaluation of the effect of food on the pharmacokinetics of NB tablets.
Days 1-31 of the study were devoted to the primary investigation of metoprolol pharmacokinetics in the context of steady-state dosing with NB tablets. Subjects (n=18) received a metoprolol 50 mg IR tablet on Days 1 and 31. NB was dose escalated every week from a single NB 8/90 tablet per day on Day 3 to a maximum dose of NB 32/360 (two NB 8/90 tablets BID) starting on Day 24. In the clinic setting (Days 1-3 and 27-31), standardized meals were provided before dosing and pharmacokinetic sampling. These meals were moderate in fat and caloric content. Subjects were instructed to take study medication with food during the outpatient (Days 4-26) phase of the study.
Subjects enrolling in the optional extension continued BID dosing administration (with moderate meals) through Day 32. […] The evening dose on Day 33, study medication was given with food (“moderate” meal). For Day 34, subjects received their morning dose under the opposite condition from what they received on the morning of Day 33. […] For purposes of studying the effects of food, the comparisons were between Day 30 pharmacokinetics (“moderate” meal) and the fasted and high-fat meal conditions administered on Day 33 and Day 34.

clinical [3] = details: human
[4] = in vivo
clinical [5] = details: both, human
[6] = human, in vivo
[7] = Example 3 (NB-239 vs NB-237): single dose NB 8/90 tablets, moderate-fat, moderate-calorie meal vs fasted, cross-study comparison; details: for Cmax: single dose two NB 8/90 tablets
[8] = fed moderate-fat meal, mean ± SD
[9] = fed moderate-calorie, moderate-fat meal, mean ± SD
[10] = fed (high-fat meal), arithmetic mean ± SD

## Oc1ccc2c3c1O[C@H]1[C@H](O)CC[C@@]4(O)[C@@H](C2)N(CC2CC2)CC[C@]314 [6β-naltrexol]
[1]
  increase in Cmax: 52%
[2]; steady state, two NB 8/90 tablets
  effect of food (moderate-fat or high-fat meal) on exposure relative to the fasted state (in words): neither meal type appeared to affect

## CC(NC(C)(C)C)C(=O)c1cccc(Cl)c1 (stereo not shown) [Bupropion, bupropion]
[1]; fasted, arithmetic mean ± SD
  AUC0-t: 1550.91 ± 549.08 ng·h/mL
Clinical [3]; in vivo
  Tmax: 2.07 h
[4]; both, human
  AUC0-t Fed to Fasted % MR: 139.50%
  t1/2 apparent terminal elimination half-life: 20.44 h
[4]
  apparent terminal elimination t1/2, fed vs fasted conditions (in words): similar
  median Tmax, fed vs fasted conditions (in words): one hour shorter
Clinical [5]; in vivo
  AUC(0-inf): 1620 ± 574 ng·h/mL
  Cmax: 161 ± 52.1 ng/mL
[2]; both, human, in vivo
  Cmin: 41.6 ± 10.4 ng/mL
[2]; both, human, in vivo, po
  AUC0-t: 965 ± 249 ng·h/mL
[2]; both, human, in vivo, po, Tmax
  Tmax: 1.99 h
[2]; steady state, morning dose two NB 8/90 tablets fasted, Day 33 or 34, mean ± SD
  Cmax: 131 ± 38.2 ng/mL
[2]; steady state, morning dose two NB 8/90 tablets fed high-fat meal, Day 33 or 34, mean ± SD
  Cmax: 167 ± 43.4 ng/mL
[2]; steady state, two NB 8/90 tablets BID, fed moderate meal, Day 30, mean ± SD
  Cmax: 156 ± 52.5 ng/mL
[6]
  AUC0-t % MR, fed (moderate-fat) to fasted: 91.55%
[7]; fasted, mean ± SD
  AUC0-t: 1496.01 ± 323.04 ng·h/mL
  AUC0-∞: 1574.93 ± 346.49 ng·h/mL
  t1/2: 19.83 ± 3.24 h
  Cmax: 156 ± 36.9 ng/mL
[7]; [8]
  AUC0-∞: 1384.85 ± 330.19 ng·h/mL
[7]; [9]
  Cmax: 154 ± 55.4 ng/mL

## O=C1CC[C@@]2(O)[C@H]3Cc4ccc(O)c5c4[C@@]2(CCN3CC2CC2)[C@H]1O5 [Naltrexone, naltrexone]
[1]; fasted, arithmetic mean ± SD
  AUC0-t: 7.98 ± 4.04 ng·h/mL
[1]; [10]
  AUC0-t: 16.42 ± 8.70 ng·h/mL
  AUC0-∞: 16.65 ± 8.70 ng·h/mL
[1]; fed (high-fat meal), median (minimum, maximum)
  Tmax: 2.00 (0.75, 6.00) hr
[1]; fed vs fasted
  median Tmax, fed vs fasted conditions (in words): similar
[1]; high-fat fed vs fasted
  AUC0-t Fed to Fasted % MR: 211.50%
[1]; plasma, single dose two NB 8/90 tablets, fed (high-fat meal), arithmetic mean ± SD
  Cmax: 4.00 ± 2.52 ng/mL
Clinical [3]; plasma, oral
  AUC0-t: 8.3 ± 6.41 ng·h/mL
  AUC(0-inf): 8.55 ± 6.46 ng·h/mL
  Cmax: 1.34 ± 0.763 ng/mL
  Tmax: 1.27 h
Clinical [5]; plasma, oral
  AUC(0-inf): 8.39 ± 4.26 ng·h/mL
  Tmax: 2 h
[2]; both, human, plasma, po, fasted, Day 33 or 34, mean ± SD
  AUC0-t: 7.07 ± 2.88 ng·h/mL
[2]; both, human, plasma, po, fed high-fat meal, Day 33 or 34, mean ± SD
  AUC0-t: 11.8 ± 4.68 ng·h/mL
[2]; both, human, plasma, po, fed moderate meal, Day 30, mean ± SD
  AUC0-t: 11.7 ± 4.45 ng·h/mL
[2]; both, human, plasma, po, Cmax, steady state, morning dose two NB 8/90 tablets fasted, Day 33 or 34, mean ± SD
  Cmax: 1.47 ± 0.71 ng/mL
[2]; both, human, plasma, po, Cmax, steady state, morning dose two NB 8/90 tablets fed high-fat meal, Day 33 or 34, mean ± SD
  Cmax: 2.84 ± 1.53 ng/mL
[2]; both, human, plasma, po, Cmax, steady state, two NB 8/90 tablets BID, fed moderate meal, Day 30, mean ± SD
  Cmax: 2.6 ± 1.02 ng/mL
[2]; both, human, plasma, po, Tmax, fasted, Day 33 or 34, median (minimum, maximum)
  Tmax: 0.75 h
[2]; both, human, plasma, po, Tmax, fed moderate meal, Day 30, median (minimum, maximum)
  Tmax: 2 h
[2]; fasted, Day 33 or 34, mean ± SD
  Cmin: 0.172 ± 0.0758 ng/mL
[2]; fed high-fat meal, Day 33 or 34, mean ± SD
  Cmin: 0.159 ± 0.0895 ng/mL
[2]; fed high-fat meal, Day 33 or 34, median (minimum, maximum)
  Tmax: 3.00 (1.25, 6.00) hr
[2]; fed moderate meal, Day 30, mean ± SD
  Cmin: 0.195 ± 0.105 ng/mL
[2]; high-fat, high-calorie meal
  lower Cmin versus the fasted condition: 12%
[2]; moderate-fat, moderate-calorie meal
  higher Cmin versus the fasted condition: 10%
[2]; steady state
  Cmin % MR, high-fat fed to fasted: 88.39%
  Cmin % MR, high-fat to moderate-fat: 80.15%
  Cmin % MR, moderate-fat fed to fasted: 110.04%
[2]; steady state, morning dose
  effect of changing meal from moderate-fat, moderate-calorie to high-fat, high-calorie (in words): no effect
[7]; [8]
  AUC0-t: 13.41 ± 6.93 ng·h/mL
  AUC0-∞: 13.63 ± 7.15 ng·h/mL
[7]; fed moderate-fat meal, median (minimum, maximum)
  Tmax: 2.00 (0.75, 6.00) hr
[7]; [9]
  Cmax: 2.65 ± 1.18 ng/mL

## CC(NC(C)(C)C)C(O)c1cccc(Cl)c1 (stereo not shown) [erythrohydrobupropion]
[1]
  Cmax between high-fat and fasted conditions (in words): comparable

## C[C@H]1NC(C)(C)CO[C@]1(O)c1cccc(Cl)c1 [hydroxybupropion]
[1]
  Cmax between high-fat and fasted conditions (in words): comparable

## C[C@H](NC(C)(C)C)[C@@H](O)c1cccc(Cl)c1 [threohydrobupropion]
[1]
  increase in Cmax: 26%
